# Experiments:
# Assay in all cases: Eurofins kinase panel
# Type in all cases: biochemical
# Settings in all cases: read-out: Inhibition rate (%)
# CHK1(h) = target: T1, CHK1(h) (Homo sapiens, UniProt O14757)
# T1 construct: purchased Eurofins (KinaseProfiler)
# T1 sequence (O14757 1-476): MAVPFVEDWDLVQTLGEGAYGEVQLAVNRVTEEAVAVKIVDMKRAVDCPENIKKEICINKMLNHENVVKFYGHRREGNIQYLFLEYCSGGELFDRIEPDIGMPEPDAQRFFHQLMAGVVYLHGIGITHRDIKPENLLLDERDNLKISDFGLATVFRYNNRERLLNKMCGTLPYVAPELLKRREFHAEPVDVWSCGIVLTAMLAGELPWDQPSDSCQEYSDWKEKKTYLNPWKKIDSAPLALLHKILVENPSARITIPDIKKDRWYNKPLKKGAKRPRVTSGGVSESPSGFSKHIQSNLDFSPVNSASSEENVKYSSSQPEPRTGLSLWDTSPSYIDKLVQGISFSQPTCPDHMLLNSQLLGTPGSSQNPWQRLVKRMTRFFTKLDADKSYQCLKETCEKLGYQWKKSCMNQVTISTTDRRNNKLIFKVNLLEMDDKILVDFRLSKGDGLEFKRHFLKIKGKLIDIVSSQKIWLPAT
# DYRK2(h) = target: T2, DYRK2(h) (Homo sapiens, UniProt Q92630)
# T2 construct: purchased Eurofins (KinaseProfiler)
# T2 sequence (Q92630 1-601): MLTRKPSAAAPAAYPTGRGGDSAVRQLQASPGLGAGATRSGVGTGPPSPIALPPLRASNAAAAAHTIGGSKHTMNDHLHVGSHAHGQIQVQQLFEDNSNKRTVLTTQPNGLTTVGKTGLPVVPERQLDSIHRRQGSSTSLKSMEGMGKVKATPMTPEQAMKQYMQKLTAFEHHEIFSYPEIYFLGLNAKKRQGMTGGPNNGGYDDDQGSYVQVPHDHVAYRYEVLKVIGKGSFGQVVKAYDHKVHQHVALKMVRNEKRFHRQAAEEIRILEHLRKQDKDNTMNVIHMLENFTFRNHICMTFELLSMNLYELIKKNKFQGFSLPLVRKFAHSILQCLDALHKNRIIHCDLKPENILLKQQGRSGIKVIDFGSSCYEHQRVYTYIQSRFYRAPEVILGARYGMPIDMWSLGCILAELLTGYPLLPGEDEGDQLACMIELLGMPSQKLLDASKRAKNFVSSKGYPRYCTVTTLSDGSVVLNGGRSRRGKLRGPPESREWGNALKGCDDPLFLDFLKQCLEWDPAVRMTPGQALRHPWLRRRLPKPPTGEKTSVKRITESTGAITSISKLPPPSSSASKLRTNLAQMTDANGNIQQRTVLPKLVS
# CaMKK1(h) = target: T3, CaMKK1(h) (Homo sapiens, UniProt Q8N5S9)
# T3 construct: purchased Eurofins (KinaseProfiler)
# Lck(h) = target: T4, Lck(h) (Homo sapiens, UniProt P06239)
# T4 construct: purchased Eurofins (KinaseProfiler)
# ULK1(h) = target: T5, ULK1(h) (Homo sapiens, UniProt O75385)
# T5 construct: purchased Eurofins (KinaseProfiler)
# T5 sequence (O75385 1-1050): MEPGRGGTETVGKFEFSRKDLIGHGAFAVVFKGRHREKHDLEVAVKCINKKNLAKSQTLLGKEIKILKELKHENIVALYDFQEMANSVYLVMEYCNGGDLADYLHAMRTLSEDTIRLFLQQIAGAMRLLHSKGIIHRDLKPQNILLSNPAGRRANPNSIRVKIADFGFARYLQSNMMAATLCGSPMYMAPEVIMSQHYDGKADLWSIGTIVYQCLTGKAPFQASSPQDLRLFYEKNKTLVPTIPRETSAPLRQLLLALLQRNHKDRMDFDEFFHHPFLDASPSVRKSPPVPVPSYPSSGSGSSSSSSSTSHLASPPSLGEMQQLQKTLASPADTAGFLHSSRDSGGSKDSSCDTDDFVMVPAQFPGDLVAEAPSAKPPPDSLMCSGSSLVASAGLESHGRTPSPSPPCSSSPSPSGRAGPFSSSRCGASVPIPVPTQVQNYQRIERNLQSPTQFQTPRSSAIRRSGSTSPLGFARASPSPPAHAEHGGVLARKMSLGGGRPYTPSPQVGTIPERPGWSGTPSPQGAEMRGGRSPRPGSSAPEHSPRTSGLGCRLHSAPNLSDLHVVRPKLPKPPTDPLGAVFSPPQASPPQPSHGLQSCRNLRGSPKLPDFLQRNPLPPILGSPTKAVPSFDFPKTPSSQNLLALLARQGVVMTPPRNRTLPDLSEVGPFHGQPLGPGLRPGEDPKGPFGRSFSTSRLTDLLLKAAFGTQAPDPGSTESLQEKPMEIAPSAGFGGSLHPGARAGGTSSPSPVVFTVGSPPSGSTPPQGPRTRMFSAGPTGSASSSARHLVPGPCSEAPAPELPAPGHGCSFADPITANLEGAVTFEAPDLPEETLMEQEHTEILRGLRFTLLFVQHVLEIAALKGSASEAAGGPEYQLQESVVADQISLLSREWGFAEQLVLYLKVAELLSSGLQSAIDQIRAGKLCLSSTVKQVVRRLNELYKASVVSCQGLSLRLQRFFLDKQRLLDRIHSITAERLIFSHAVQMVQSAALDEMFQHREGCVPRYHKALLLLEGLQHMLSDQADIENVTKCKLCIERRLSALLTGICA
# TAK1(h) = target: T6, TAK1(h) (Homo sapiens, UniProt O43318)
# T6 construct: purchased Eurofins (KinaseProfiler)
# T6 sequence (O43318 1-303 limits assumed): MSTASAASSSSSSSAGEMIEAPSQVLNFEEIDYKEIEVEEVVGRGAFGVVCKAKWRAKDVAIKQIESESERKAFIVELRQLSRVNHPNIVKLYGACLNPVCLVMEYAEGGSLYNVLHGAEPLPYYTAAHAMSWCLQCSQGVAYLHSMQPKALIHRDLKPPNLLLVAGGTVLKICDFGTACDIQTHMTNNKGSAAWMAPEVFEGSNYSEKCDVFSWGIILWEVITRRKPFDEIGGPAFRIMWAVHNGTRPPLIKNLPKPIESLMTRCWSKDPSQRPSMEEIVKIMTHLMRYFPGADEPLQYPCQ
# T3 sequence (Q8N5S9 whole entry): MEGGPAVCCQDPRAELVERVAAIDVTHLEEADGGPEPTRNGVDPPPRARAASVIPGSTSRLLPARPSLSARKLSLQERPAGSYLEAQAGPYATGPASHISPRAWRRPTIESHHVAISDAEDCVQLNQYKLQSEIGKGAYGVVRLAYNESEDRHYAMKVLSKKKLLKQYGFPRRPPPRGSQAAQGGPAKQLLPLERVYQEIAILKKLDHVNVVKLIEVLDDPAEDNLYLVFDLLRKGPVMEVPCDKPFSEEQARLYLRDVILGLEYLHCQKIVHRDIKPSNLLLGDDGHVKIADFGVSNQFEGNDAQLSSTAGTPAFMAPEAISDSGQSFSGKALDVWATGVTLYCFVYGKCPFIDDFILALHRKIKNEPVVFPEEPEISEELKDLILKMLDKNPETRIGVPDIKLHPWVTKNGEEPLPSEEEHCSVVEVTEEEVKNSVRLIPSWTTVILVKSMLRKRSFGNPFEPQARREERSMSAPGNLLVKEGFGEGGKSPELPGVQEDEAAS
# T4 sequence (P06239 whole entry): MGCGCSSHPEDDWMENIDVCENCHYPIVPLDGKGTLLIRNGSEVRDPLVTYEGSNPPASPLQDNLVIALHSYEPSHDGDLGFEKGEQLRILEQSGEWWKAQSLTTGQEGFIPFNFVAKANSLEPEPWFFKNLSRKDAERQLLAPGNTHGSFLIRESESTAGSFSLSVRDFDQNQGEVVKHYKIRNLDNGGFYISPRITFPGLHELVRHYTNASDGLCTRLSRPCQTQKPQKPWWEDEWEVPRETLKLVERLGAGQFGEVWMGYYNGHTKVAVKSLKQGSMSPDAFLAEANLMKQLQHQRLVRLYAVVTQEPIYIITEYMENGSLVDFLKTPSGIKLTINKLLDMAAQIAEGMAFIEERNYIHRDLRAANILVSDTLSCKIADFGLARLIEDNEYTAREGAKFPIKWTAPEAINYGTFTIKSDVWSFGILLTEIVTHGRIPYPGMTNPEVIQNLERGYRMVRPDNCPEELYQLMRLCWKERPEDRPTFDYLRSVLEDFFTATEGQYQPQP
smiles,measurement,setting,value
COc1cc(OC)c(Cl)c(-c2ccc3c(NC(=O)c4ccc(N5CCNC(C)(C)C5)cc4)n[nH]c3n2)c1Cl [3D185],inhibition at 0.01 µM,CHK1(h); 10 nM,3%
same,inhibition at 0.1 µM,CHK1(h); 100 nM,-6%
same,inhibition at 1 µM,CHK1(h); 1000 nM,-3%
same,inhibition at 0.01 µM,DYRK2(h); 10 nM,-1%
same,inhibition at 0.1 µM,DYRK2(h); 100 nM,-1%
same,inhibition at 1 µM,DYRK2(h); 1000 nM,12%
same,inhibition at 0.01 µM,CaMKK1(h); 10 nM,-1%
same,inhibition at 0.1 µM,CaMKK1(h); 100 nM,5%
same,inhibition at 1 µM,CaMKK1(h); 1000 nM,35%
same,inhibition at 0.01 µM,Lck(h); 10 nM,22%
same,inhibition at 0.1 µM,Lck(h); 100 nM,60%
same,inhibition at 1 µM,Lck(h); 1000 nM,94%
same,inhibition at 0.01 µM,ULK1(h); 10 nM,-2%
same,inhibition at 0.1 µM,ULK1(h); 100 nM,4%
same,inhibition at 1 µM,ULK1(h); 1000 nM,5%
same,inhibition at 0.01 µM,TAK1(h); 10 nM,-6%
same,inhibition at 0.1 µM,TAK1(h); 100 nM,11%
same,inhibition at 1 µM,TAK1(h); 1000 nM,13%

# Reference: paper PMC6704710, “Preclinical evaluation of 3D185, a novel potent inhibitor of FGFR1/2/3 and CSF-1R, in FGFR-dependent and macrophage-dominant cancer models” (Journal of Experimental & Clinical Cancer Research : CR, 2019)
